Common to all, as to assay type: cell-based
The test system of one experiment is BxPC3. The experiment can be described thus: G2/M cell cycle arrest after MMC treatment (flow cytometry). Conditions: BxPC3 (control line); MMC 2 hours, analyzed 48 hours later; concentrations as high as. The protocol: (§1) Cells were cultured in 25 cm^2 flasks and treated with MMC for two hours. Cells were washed with PBS and incubated with normal tissue culture medium for 48 hours.
(§2) Cells were obtained by trypsinization and resuspended in 3.7% paraformaldehyde in PBS, stained with Hoechst 33258 (Sigma), incubated at 4° C. for 10 min and analyzed using a flow cytometer. A “G2/M arrest” was defined as a twofold increase of the percentage of cells in G2/M, as compared to untreated cells.
(§3) The methods used to investigate cell “survival” upon treatment with MMC and cisplatin sum the effects of cell death, slow growth and the occurrence of a cell cycle arrest. To determine the potential contribution of an arrest, we analyzed cell cycle distributions of DNA content after MMC treatment. Six pancreatic cancer cell lines (BxPC3, MiaPaCa2, Su86.86, PL11, Hs766T and CAPAN1) and one HNSCC cell line (FaDu) were analyzed 48 hours after MMC treatment for 2 hours; a G2/M arrest was defined as a twofold increase of the fraction of cells containing 4N DNA content, as compared to untreated cells (FIG. 4). Hs766T arrested in G2/M at a MMC concentration of 100 nM, PL11 at 100 nM, CAPAN1 at 200 nM and FaDu at 500 nM, whereas control pancreatic cancer cell lines MiaPaCa2, Su86.86 and BxPC3 […] at MMC concentrations as high as 2 μM.
(In general: Flow cytometry measures light scatter and fluorescence of single cells or particles in a stream.)

A further experiment relates to FaDu. The experiment is described as above. Particulars: MMC 2 hours, analyzed 48 hours later, arrest = twofold increase of 4N fraction vs untreated. The procedure: as §1, §2, §3
A further experiment relates to MiaPaCa2. The experiment is described as above. Particulars: MiaPaCa2 (control line); MMC 2 hours, analyzed 48 hours later; concentrations as high as. The protocol:
as §1, §2, §3

Experiment [1] has as its system Hs766T. The experiment is described as above. Conditions: MMC 2 hours, analyzed 48 hours later, arrest = twofold increase of 4N fraction vs untreated. The protocol: as §1, §2, §3
The next experiment concerns PL11. The experiment is described as above. Conditions: MMC 2 hours, analyzed 48 hours later, arrest = twofold increase of 4N fraction vs untreated. The procedure:
as §1, §2, §3

The subject of experiment [2] is Su86.86. The description is as above. Conditions: Su86.86 (control line); MMC 2 hours, analyzed 48 hours later; concentrations as high as. The procedure:
as §1, §2, §3

The subject of experiment [3] is CAPAN1. The description is as above. Conditions: MMC 2 hours, analyzed 48 hours later, arrest = twofold increase of 4N fraction vs untreated. The procedure:
as §1, §2, §3

The subject of experiment [4] is Hs766T. The experiment can be described thus: Survival study, manual (hemacytometer) cell counts. Conditions: manual cell counts after 3-4 population doublings (FIG. 3C). The procedure: (§4) Cell counts: 1×10^5 cells were plated in tissue culture flasks (25 cm^2). The next day, the medium was substituted with MMC-containing medium (range 0-4.5 μM). Cells were counted after 3-4 population doublings (4-7 days) using a hemacytometer. Four experiments per cell line/concentration were done.
(§5) To confirm the results obtained with the Picogreen assay, we also assessed sensitivity to MMC of the cell lines MiaPaCa2, Su86.86, CAPAN1 and Hs766T with manual (hemacytometer) cell counts. This assay confirmed their hypersensitivity to MMC (FIG. 3C). The FA-defective HNSCC cell line FaDu was also hypersensitive to MMC (FIG. 3D), but not to cisplatin (FIG. 3E), as compared to the FA-proficient HNSCC cell lines A-253 and Detroit 562.

The subject of experiment [5] is CAPAN1. The experiment can be described thus: Survival study, manual (hemacytometer) cell counts. Particulars: manual cell counts after 3-4 population doublings (FIG. 3C). The procedure:
as §4, §5

In another experiment the test system is CAPAN1 (BRCA2-mutated). The experiment can be described thus: Survival study, Picogreen DNA quantitation. The procedure:
(§6) Cells were incubated for a period of time long enough to allow non-treated cells to reach at least a threefold increase in fluorescence as compared to day 1 (3-7 days). Medium was changed every 48 hours. Cells were washed with PBS, and lysed in 100 μL sterile water. After 1 hour, 100 μl 0.5% Picogreen (Molecular Probes, Eugene, Oreg.) in tris-EDTA buffer was added to each well. After 45 minutes, wells were read in a fluorometer. Survival was calculated as a percentage; the wells without drugs were considered as 100 percent. Each experiment was done in duplicate; at least six experiments per cell line per concentration were performed.
(§7) The FA-defective pancreatic cancer cell lines Hs766T (FANCG-mutated), PL11 (FANCC-mutated) and CAPAN1 (BRCA2-mutated) and FA-proficient cell lines Su86.86 and MiaPaCa2 were treated with various concentrations of either MMC or cisplatin, and incubated in 96-well plates. Relative cell numbers were determined by measurement of doublestranded DNA content using Picogreen; wells containing no compound were used as controls. […] The FA-defective cell lines

For a further experiment, the system named is PL11 (FANCC-mutated). The experiment can be described thus: Survival study, Picogreen DNA quantitation. The procedure: as §6, §7
The next experiment concerns Hs766T (FANCG-mutated). The experiment can be described thus: Survival study, Picogreen DNA quantitation. The procedure: as §6, §7
A further experiment deals with FaDu (FA-defective). Kind of experiment: Survival study, Picogreen DNA quantitation.
Experiment [6] relates to Su86.86. The experiment can be described thus: Survival study, Picogreen DNA quantitation. Particulars: compared to MiaPaCa2, less sensitive than CAPAN1 and PL11. The protocol:
as §6, §7

Setting [7] is: 3-7 days, compared to MiaPaCa2 and Su86.86 (FIG. 3A).

The structures appear in SMILES notation. “Also recorded” adds a separate entry of the source.

On to `CO[C@@]12[C@H](COC(N)=O)C3=C(C(=O)C(C)=C(N)C3=O)N1C[C@@H]1N[C@@H]12` [MMC, mitomycin C], for which the “MMC concentration at which cells arrested in G2/M” value with BxPC3 was determined as 2 µM; in the experiment on FaDu, 500 nM; with MiaPaCa2 it was 2 µM; in the experiment on Hs766T [1], 100 nM; in the experiment on PL11, 100 nM; in the experiment on Su86.86 [2], 2 µM. The “MMC concentration at which cells arrested in G2/M” value in the experiment with CAPAN1 [3] is given as 200 nM. Moreover, the “Sensitivity to MMC” value is given as “hypersensitivity” with Hs766T [4]; “hypersensitivity” in the experiment with CAPAN1 [5]; “hypersensitive; also recorded: increased sensitivity” in the experiment with CAPAN1 (BRCA2-mutated) (setting [7]); “hypersensitive; also recorded: increased sensitivity” with PL11 (FANCC-mutated) (setting [7]); “hypersensitive; also recorded: increased sensitivity” in the experiment on Hs766T (FANCG-mutated) (setting [7]); “hypersensitive” with FaDu (FA-defective) (compared to A-253 and Detroit 562 (FIG. 3D)).

Turning to `N.N.[Cl][Pt][Cl]` [cisplatin], the Sensitivity to cisplatin entry with CAPAN1 (BRCA2-mutated) (3-7 days (FIG. 3B)) is “hypersensitive”; with PL11 (FANCC-mutated) (3-7 days (FIG. 3B)), “hypersensitive”; in the experiment on Hs766T (FANCG-mutated) (compared to MiaPaCa2, less sensitive than CAPAN1 and PL11) it was “increased sensitivity”; in the experiment on Su86.86 [6], “increased sensitivity”. Moreover, the Hypersensitive to cisplatin entry in the experiment with FaDu (FA-defective) (compared to A-253 and Detroit 562 (FIG. 3E)) is “not”.

The values are drawn from patent US20060183122A1, “Fanc gene mutations in cancer” (priority 2002, published 2006).
